One assay deals with T1, CDK2/Cyclin E (Homo sapiens, UniProt P24941).
T1 construct: made in house; host or cells: Sf9 insect cells (baculovirus)
Kind of assay: CDK2/Cyclin E kinase inhibition, [γ-33P]ATP, histone H1. Format: biochemical. Here is the method:
CDK2/Cyclin E and CDK1/Cyclin B kinases were produced in Sf9 insect cells via baculoviral infection and purified on a Ni-NTA column (Qiagen). CDK4/Cyclin D1, CDK5/p35NCK, CDK7/Cyclin H/MAT1 and CDK9/Cyclin T1 were purchased from ProQinase GmbH. […] The reactions were stopped by adding 5 mL of 3% aq. H3PO4. Aliquots were spotted onto P-81 phosphocellulose (Whatman), washed 3 times with 0.5% aq. H3PO4 and finally air-dried. Kinase inhibition was quantified using a FLA-7000 digital image analyzer (Fujifilm). The concentration of the test compounds required to decrease the CDK activity by 50% was determined from dose response curves and designated as IC50.

Assay [1] concerns OCI-LY2 (diffuse large B-cell lymphoma, subtype—germinal center B-cell). Briefly: MTT cytotoxicity assay, OCI-LY2 lymphoma cell line. Format: cell-based. Conditions: 72 h, OCI-LY2 cells, three days, read-out: Lymphoma cell lines GI50, OCI-LY2. The source says:
(§1) Cytotoxicity of the compounds is the major property determining their anti-lymphoma efficacy in vitro. One of the parameters used, as the basis for cytotoxicity assays, is the metabolic activity of viable cells. For example 2, a microtiter assay, which uses (3-(4,5-dimethylthiazol-2-yl)-2,5-diphenyltetrazolium bromide (MTT), is widely used to quantitate cell proliferation and cytotoxicity. This assay is widely used in drug screening programs and in chemosensitivity testing. Because only metabolically active living cells reduce MTT to correspond purple formazan dye, these assays detect viable cells exclusively. The quantity of reduced MTT corresponds to the number of vital cells in the culture.
(§2) The compounds were assayed using the following lymphoma cell lines: HT (diffuse large B-cell lymphoma, subtype—germinal center B-cell), OCI-LY2 (diffuse large B-cell lymphoma, subtype—germinal center B-cell), MINO (mantle cell lymphoma). All cell lines were grown in RPMI medium supplemented with fetal bovine serum and glutamine and maintained at 37° C. in a humidified atmosphere with 5% CO2. For cytotoxicity assays, 5000-10000 cells were seeded into each well of 96 well plate, allowed to stabilize for at least 8 h and then tested compounds were added at various concentrations ranging from 100 to 0.01 μM in triplicates. After three days, MTT solution (5 mg/ml; Sigma, St. Louis, USA) was added to cells and medium was replaced with DMSO after five hours. The absorbance was measured at 620 nm by employing a microplate reader. MTT assays were repeated 3 times for each drug application and untreated cells were used as reference. The GI50 values, drug concentrations lethal to 50% of the cells, were calculated from the obtained dose response curves.
For orientation: Tetrazolium dyes change colour on reduction, which living cells bring about.

Assay [2] deals with HT (diffuse large B-cell lymphoma, subtype—germinal center B-cell). Briefly: MTT cytotoxicity assay, HT lymphoma cell line. Particulars: Homo sapiens, 72 h, HT cells, three days, read-out: Lymphoma cell lines GI50, HT. Format: cell-based.
From the text: as §1, §2

Assay [3] concerns MINO (mantle cell lymphoma). Briefly: MTT cytotoxicity assay, MINO lymphoma cell line. Format: cell-based. Conditions: Homo sapiens, 72 h, MINO cells, three days, read-out: Lymphoma cell lines GI50, MINO.
From the text: as §1, §2

Where [4] appears, read: Table 4, read-out: CDK2/E inhibition IC50.
The mark [5] stands for this setting: Table 3, read-out: Enzyme inhibition IC50 CDK2/E.

The values below come from patent US11186583B2, “5-alkylthio-7-[(4-arylbenzyl)amino]-1(2)H-pyrazolo[4,3-d]pyrimidines for treatment of lymphoma” (UNIVERZITA PALACKEHO V OLOMOUCI, priority 2018, dated 2021).

Read-outs that look alike come from different tables or passages of the source.

In the case of `CC(C)c1n[nH]c2c(NCc3ccc(-c4cnccn4)cc3)nc(SCCN)nc12` [Compound 4.139, 5-(2-Amino-1-ethyl)thio-3-isopropyl-7-[4-(pyrazin-2-yl)benzyl]amino-1(2)H-pyrazolo[4,3-d]pyrimidin], the IC50 at CDK2/Cyclin E (setting [4]) came to 4 nM.

For `CC(C)c1n[nH]c2c(NCc3ccc(-n4ccnc4)cc3)nc(SCCN)nc12` [Compound 4.57, 5-(2-Amino-1-ethyl)thio-3-isopropyl-7-[4-(imidazol-1-yl)benzyl]amino-1(2)H-pyrazolo[4,3-d]pyrimidin], at CDK2/Cyclin E (setting [4]), the IC50 was determined as 5 nM.

As to `CC(O)CSc1nc(NCc2ccc(-n3cccn3)cc2)c2n[nH]c(C(C)C)c2n1` (stereo not drawn) [Compound 4.81, 5-(2-Hydroxy-1-propyl)thio-3-isopropyl-7-[4-(pyrazol-1-yl)benzyl]amino-1(2)H-pyrazolo[4,3-d]pyrimidin], at CDK2/Cyclin E (setting [4]), the IC50 came out at 37 nM.

As for `CC(C)c1[nH]nc2c(NCc3ccc(-n4cccn4)cc3)nc(SCC(O)CO)nc12` (stereo not drawn) [Compound 4.94, 5-(2,3-Dihydroxy-1-propyl)thio-3-isopropyl-7-[4-(pyrazol-1-yl)benzyl]amino-1(2)H-pyrazolo[4,3-d]pyrimidin], on CDK2/Cyclin E (setting [4]), the IC50 stood at 6 nM.

With `CC(C)c1[nH]nc2c(NCc3ccc(-n4cccn4)cc3)nc(SCCCN(C)C)nc12` [Compound 4.96], the IC50 at CDK2/Cyclin E (setting [4]) stood at 60 nM.

As for `CC(C)c1[nH]nc2c(NCc3ccc(-n4cccn4)cc3)nc(SCCO)nc12` [Compound 4.80, 5-(2-Hydroxy-1-ethyl)thio-3-isopropyl-7-[4-(pyrazol-1-yl)benzyl]amino-1(2)H-pyrazolo[4,3-d]pyrimidin], the IC50 at CDK2/Cyclin E (setting [4]) came out at 3 nM.

As for `CC(C)c1n[nH]c2c(NCc3ccc(-c4cnccn4)cc3)nc(SCCO)nc12` [Compound 4.133, 5-(2-Hydroxy-1-ethyl)thio-3-isopropyl-7-[4-(pyrazin-2-yl)benzyl]amino-1(2)H-pyrazolo[4,3-d]pyrimidin], the IC50 at CDK2/Cyclin E (setting [4]) came to 6 nM.

As for `CC(C)c1[nH]nc2c(NCc3ccc(-n4cccn4)cc3)nc(SCC(C)(C)N)nc12` [Compound 4.90, 5-(2-Amino-2-methyl-1-propyl)thio-3-isopropyl-7-[4-(pyrazol-1-yl)benzyl]amino-1(2)H-pyrazolo[4,3-d]pyrimidin], at CDK2/Cyclin E (setting [4]), the IC50 amounted to 11 nM.

On to `CC(C)c1[nH]nc2c(NCc3ccc(-n4cccn4)cc3)nc(SCC(C)(C)O)nc12` [Compound 4.93, 5-(2-Hydroxy-2-methyl-1-propyl)thio-3-isopropyl-7-[4-(pyrazol-1-yl)benzyl]amino-1(2)H-pyrazolo[4,3-d]pyrimidin], for which the IC50 at CDK2/Cyclin E (setting [4]) worked out at 8 nM.

Broadly, the GI50 is the concentration that inhibits growth by half. Take `CC(C)c1n[nH]c2c(NCc3ccc(-c4ccccn4)cc3)nc(SCCN)nc12` [Compound 4.9, 5-(2-Amino-1-ethyl)thio-3-isopropyl-7-[4-(2-pyridyl)benzyl]amino-1(2)H-pyrazolo[4,3-d]pyrimidine]: the values for the GI50 in assay [1], in assay [2] and in assay [3] were 46 nM, 40 nM and 29 nM, respectively. Besides, the IC50 on CDK2/Cyclin E (CDK panel, tested at least in duplicates, read-out: IC50 CDK2) came to 5 ± 1 nM; at CDK2/Cyclin E (setting [5]), 4 nM.

For the molecule `CC(C)c1n[nH]c2c(NCc3ccc(-c4ccccn4)cc3)nc(SC3CCCCC3N)nc12` (stereo not drawn) [Compound 4.31, 5-(2-Aminocyclohexyl)thio-3-isopropyl-7-[4-(2-pyridyl)benzyl]amino-1(2)H-pyrazolo[4,3-d]pyrimidine], the GI50 came to 136 nM in assay [1], 139 nM in assay [2] and 157 nM in assay [3].

Take `COCSc1nc(NCc2ccc(-c3ccccn3)cc2)c2[nH]nc(C(C)C)c2n1` [Compound 4.33, 5-(Methoxymethyl)thio-3-isopropyl-7-[4-(2-pyridyl)benzyl]amino-1(2)H-pyrazolo[4,3-d]pyrimidine]: the GI50 in assay [1] turned out to be 285 nM; in assay [2], 340 nM; in assay [3] it was 243 nM.

For `CC(C)c1n[nH]c2c(NCc3ccc(-c4ccccn4)cc3)nc(SCC(C)(C)O)nc12` [Compound 4.17, 5-(2-Hydroxy-2-methyl-1-propyl)thio-3-isopropyl-7-[4-(2-pyridyl)benzyl]amino-1(2)H-pyrazolo[4,3-d]pyrimidine], the GI50 worked out at 610 nM in assay [1], 507 nM in assay [2] and 477 nM in assay [3].

As to `CC(C)c1n[nH]c2c(NCc3ccc(-c4ccccn4)cc3)nc(SCCS)nc12` [Compound 4.35, 5-(2-sulfanylethyl)thio-3-isopropyl-7-[4-(2-pyridyl)benzyl]amino-1(2)H-pyrazolo[4,3-d]pyrimidine], the IC50 at CDK2/Cyclin E (setting [5]) turned out to be 320 nM.

As for `CC(C)c1n[nH]c2c(NCc3ccc(-c4ccccn4)cc3)nc(SCCCO)nc12` [Compound 4.8, 5-(3-Hydroxy-1-propyl)thio-3-isopropyl-7-[4-(2-pyridyl)benzyl]amino-1(2)H-pyrazolo[4,3-d]pyrimidine], the values for the GI50 in assay [1], in assay [2] and in assay [3] were 102 nM, 109 nM and 89 nM, respectively.

Take `CC(C)c1n[nH]c2c(NCc3ccc(-c4ccccn4)cc3)nc(SCCCN(C)C)nc12` [Compound 4.20, 5[3-(Dimethylamino)-1-propyl]thio-3-isopropyl-7-[4-(2-pyridyl)benzyl]amino-1(2)H-pyrazolo[4,3-d]pyrimidine]: the 50% growth inhibitory concentration (GI50) in assay [1] came to 109 nM; in assay [2], 105 nM; in assay [3], 76 nM.

As to `CC(C)c1n[nH]c2c(NCc3ccc(-c4ccccn4)cc3)nc(SCC(O)CO)nc12` (stereo not drawn) [Compound 4.18, 5-(2,3-Dihydroxy-1-propyl)thio-3-isopropyl-7-[4-(2-pyridyl)benzyl]amino-1(2)H-pyrazolo[4,3-d]pyrimidine], the GI50 in assay [1] worked out at 22 nM; in assay [2], 21 nM; in assay [3] it was 10 nM.

Regarding `CC(C)c1n[nH]c2c(NCc3ccc(-n4ccnc4)cc3)nc(SCCO)nc12` [Compound 4.50, 5-(2-Hydroxy-1-ethyl)thio-3-isopropyl-7-[4-(imidazol-1-yl)benzyl]amino-1(2)H-pyrazolo[4,3-d]pyrimidine], the IC50 at CDK2/Cyclin E (setting [4]) was determined as 10 nM.

Take `CC(C)c1n[nH]c2c(NCc3ccc(-c4ccccn4)cc3)nc(SCCN(C)C)nc12` [Compound 4.19]: the GI50 in assay [1] was found to be 61 nM; in assay [2] it was 54 nM; in assay [3], 93 nM.

With `CCC(O)CSc1nc(NCc2ccc(-c3ccccn3)cc2)c2[nH]nc(C(C)C)c2n1` (stereo not drawn) [Compound 4.15, 5-(2-Hydroxy-1-butyl)thio-3-isopropyl-7-[4-(2-pyridyl)benzyl]amino-1(2)H-pyrazolo[4,3-d]pyrimidine], the 50% growth inhibitory concentration (GI50) worked out at 280 nM in assay [1], 273 nM in assay [2] and 427 nM in assay [3].

As to `CC(C)c1n[nH]c2c(NCc3ccc(-c4c[nH]cn4)cc3)nc(SCCO)nc12` [Compound 4.109, 5-(2-Hydroxy-1-ethyl)thio-3-isopropyl-7-[4-(imidazol-4-yl)benzyl]amino-1(2)H-pyrazolo[4,3-d]pyrimidin], the IC50 on CDK2/Cyclin E (setting [4]) is 5 nM.

`CC(C)c1n[nH]c2c(NCc3ccc(-c4ccccn4)cc3)nc(SC3CCCC3O)nc12` (stereo not drawn) [Compound 4.16, 5-(2-Hydroxycyclopentyl)thio-3-isopropyl-7-[4-(2-pyridyl)benzyl]amino-1(2)H-pyrazolo[4,3-d]pyrimidine]: the GI50 in assay [1] is 373 nM; in assay [2], 567 nM; in assay [3] it was 450 nM.

With `CC(C)c1n[nH]c2c(NCc3ccc(-c4ccccn4)cc3)nc(SCCCN)nc12` [Compound 4.27, 5-(3-Amino-1-propyl)thio-3-isopropyl-7-[4-(2-pyridyl)benzyl]amino-1(2)H-pyrazolo[4,3-d]pyrimidine], the GI50 in assay [1] was 151 nM; in assay [2], 120 nM; in assay [3] it was 156 nM.

Regarding `CC(C)c1[nH]nc2c(NCc3ccc(-n4cccn4)cc3)nc(SCCN(C)C)nc12` [Compound 4.95], at CDK2/Cyclin E (setting [4]), the IC50 came out at 43 nM.

As to `CC(C)c1n[nH]c2c(NCc3ccc(-c4ccccn4)cc3)nc(SCC(O)CN)nc12` (racemic) [Compound 4.23, 5-(R/S)-(3-Amino-2-hydroxy-1-propyl)thio-3-isopropyl-7-[4-(2-pyridyl)benzyl]amino-1(2)H-pyrazolo[4,3-d]pyrimidine], the results for the GI50 in assay [1], in assay [2] and in assay [3] were 55 nM, 55 nM and 64 nM, respectively.
